Data from ChEMBL document CHEMBL3885881, “DrugMatrix”.

Species on record: Rattus norvegicus
Test: DrugMatrix - Regimen: Daily Repeat
Assay type: toxicity, organism-based, Sprague-Dawley
Design: regimen Daily Repeat, gender Male, age 6-8 weeks
Settings: in vivo, iv, vehicle 100 % SALINE; for ABSOLUTE BASOPHIL / ABSOLUTE EOSINOPHIL / ABSOLUTE LYMPHOCYTE / ABSOLUTE MONOCYTE / ABSOLUTE SEGMENTED NEUTROPHIL / BASOPHIL / EOSINOPHIL / ERYTHROCYTE COUNT / HEMATOCRIT / HEMOGLOBIN / LEUKOCYTE COUNT / LYMPHOCYTE / MEAN CORPUSCULAR HEMOGLOBIN / MEAN CORPUSCULAR HEMOGLOBIN CONCENTRATION / MEAN CORPUSCULAR VOLUME / MONOCYTE / NEUTROPHIL / NUCLEATED RED BLOOD CELLS / PLATELET COUNT: tissue Blood; for ALANINE AMINOTRANSFERASE / ALBUMIN / ALKALINE PHOSPHATASE / ASPARTATE AMINOTRANSFERASE / BLOOD UREA NITROGEN / CARBON DIOXIDE / CHLORIDE / CHOLESTEROL / CREATINE PHOSPHOKINASE / CREATININE / GLUCOSE / LACTATE DEHYDROGENASE / LIPASE / PHOSPHORUS / POTASSIUM / SODIUM / TOTAL BILIRUBIN / TOTAL PROTEIN / URIC ACID: tissue Plasma
[1] = 0.08 mg/kg, 120 h, dose level Low, time 5 day
[2] = 0.3 mg/kg, 72 h, dose level High, time 3 day
[3] = 0.3 mg/kg, 120 h, dose level High, time 5 day

## CC[C@]1(O)C[C@@H]2CN(CCc3c([nH]c4ccccc34)[C@@](C(=O)OC)(c3cc4c(cc3OC)N(C)[C@H]3[C@@](O)(C(=O)OC)[C@H](OC(C)=O)[C@]5(CC)C=CCN6CC[C@]43[C@@H]65)C2)C1 [VINBLASTINE]
[1]
  ABSOLUTE BASOPHIL: 0 CELLS/uL
  ABSOLUTE EOSINOPHIL: 0 CELLS/uL
  ABSOLUTE LYMPHOCYTE: 7180.33 CELLS/uL
  ABSOLUTE MONOCYTE: 26.33 CELLS/uL
  ABSOLUTE SEGMENTED NEUTROPHIL: 293.33 CELLS/uL
  BASOPHIL: 0%
  EOSINOPHIL: 0%
  ERYTHROCYTE COUNT: 5.15 x10E6/uL
  HEMATOCRIT: 32.43%
  HEMOGLOBIN: 13 G/DL
  LEUKOCYTE COUNT: 7.5 x10E3/uL
  LYMPHOCYTE: 95.67%
  MEAN CORPUSCULAR HEMOGLOBIN: 25.27 pg
  MEAN CORPUSCULAR HEMOGLOBIN CONCENTRATION: 40.07 G/DL
  MEAN CORPUSCULAR VOLUME: 63.1 fL
  MONOCYTE: 0.33%
  NEUTROPHIL: 4%
  NUCLEATED RED BLOOD CELLS: 0 /100WBC
  PLATELET COUNT: 1437 x10E3/uL
  ALANINE AMINOTRANSFERASE: 44 u/L
  ALBUMIN: 3.93 G/DL
  ALKALINE PHOSPHATASE: 340.67 u/L
  ASPARTATE AMINOTRANSFERASE: 88.67 u/L
  BLOOD UREA NITROGEN: 16.67 mg/dL
  CARBON DIOXIDE: 28 mmol/L
  CHLORIDE: 101.33 MEQ/L
  CHOLESTEROL: 69.67 mg/dL
  CREATINE PHOSPHOKINASE: 599 u/L
  CREATININE: 0.2 mg/dL
  GLUCOSE: 212 mg/dL
  LACTATE DEHYDROGENASE: 334.67 u/L
  LIPASE: 10.67 u/L
  PHOSPHORUS: 13.3 mg/dL
  POTASSIUM: 5.71 MEQ/L
  SODIUM: 141.27 MEQ/L
  TOTAL BILIRUBIN: 0.2 mg/dL
  TOTAL PROTEIN: 5.83 G/DL
  URIC ACID: 1.77 mg/dL
[2]
  ABSOLUTE BASOPHIL: 0 CELLS/uL
  ABSOLUTE EOSINOPHIL: 0 CELLS/uL
  ABSOLUTE LYMPHOCYTE: 5650.33 CELLS/uL
  ABSOLUTE MONOCYTE: 34.67 CELLS/uL
  ABSOLUTE SEGMENTED NEUTROPHIL: 381.67 CELLS/uL
  BASOPHIL: 0%
  EOSINOPHIL: 0%
  ERYTHROCYTE COUNT: 4.96 x10E6/uL
  HEMATOCRIT: 31.5%
  HEMOGLOBIN: 12.67 G/DL
  LEUKOCYTE COUNT: 6.07 x10E3/uL
  LYMPHOCYTE: 93%
  MEAN CORPUSCULAR HEMOGLOBIN: 25.5 pg
  MEAN CORPUSCULAR HEMOGLOBIN CONCENTRATION: 40.23 G/DL
  MEAN CORPUSCULAR VOLUME: 63.4 fL
  MONOCYTE: 0.67%
  NEUTROPHIL: 6.33%
  NUCLEATED RED BLOOD CELLS: 0 /100WBC
  PLATELET COUNT: 588.33 x10E3/uL
  ALANINE AMINOTRANSFERASE: 129 u/L
  ALBUMIN: 4.03 G/DL
  ALKALINE PHOSPHATASE: 429 u/L
  ASPARTATE AMINOTRANSFERASE: 337.67 u/L
  BLOOD UREA NITROGEN: 15 mg/dL
  CARBON DIOXIDE: 31 mmol/L
  CHLORIDE: 102 MEQ/L
  CHOLESTEROL: 104 mg/dL
  CREATINE PHOSPHOKINASE: 645 u/L
  CREATININE: 0.16 mg/dL
  GLUCOSE: 167.33 mg/dL
  LACTATE DEHYDROGENASE: 246.33 u/L
  LIPASE: 10.67 u/L
  PHOSPHORUS: 11.6 mg/dL
  POTASSIUM: 5.31 MEQ/L
  SODIUM: 144.2 MEQ/L
  TOTAL BILIRUBIN: 0.47 mg/dL
  TOTAL PROTEIN: 5.83 G/DL
  URIC ACID: 1.07 mg/dL
[3]
  ABSOLUTE BASOPHIL: 0 CELLS/uL
  ABSOLUTE EOSINOPHIL: 11.33 CELLS/uL
  ABSOLUTE LYMPHOCYTE: 4520 CELLS/uL
  ABSOLUTE MONOCYTE: 22.67 CELLS/uL
  ABSOLUTE SEGMENTED NEUTROPHIL: 46 CELLS/uL
  BASOPHIL: 0%
  EOSINOPHIL: 0.33%
  ERYTHROCYTE COUNT: 5.7 x10E6/uL
  HEMATOCRIT: 34.73%
  HEMOGLOBIN: 13.5 G/DL
  LEUKOCYTE COUNT: 4.6 x10E3/uL
  LYMPHOCYTE: 98%
  MEAN CORPUSCULAR HEMOGLOBIN: 23.7 pg
  MEAN CORPUSCULAR HEMOGLOBIN CONCENTRATION: 38.87 G/DL
  MEAN CORPUSCULAR VOLUME: 61.03 fL
  MONOCYTE: 0.67%
  NEUTROPHIL: 1%
  NUCLEATED RED BLOOD CELLS: 0.33 /100WBC
  PLATELET COUNT: 95.67 x10E3/uL
  ALANINE AMINOTRANSFERASE: 423.33 u/L
  ALBUMIN: 3.6 G/DL
  ALKALINE PHOSPHATASE: 438.67 u/L
  ASPARTATE AMINOTRANSFERASE: 923 u/L
  BLOOD UREA NITROGEN: 14.67 mg/dL
  CARBON DIOXIDE: 33 mmol/L
  CHLORIDE: 96 MEQ/L
  CHOLESTEROL: 192.33 mg/dL
  CREATINE PHOSPHOKINASE: 622.67 u/L
  CREATININE: 0.1 mg/dL
  GLUCOSE: 121 mg/dL
  LACTATE DEHYDROGENASE: 415 u/L
  LIPASE: 10.67 u/L
  PHOSPHORUS: 10.6 mg/dL
  POTASSIUM: 5.16 MEQ/L
  SODIUM: 141.4 MEQ/L
  TOTAL BILIRUBIN: 5.67 mg/dL
  TOTAL PROTEIN: 5.83 G/DL
  URIC ACID: 0.7 mg/dL
